In ChEMBL document CHEMBL1124186, “Synthesis and evaluation of tylosin-related macrolides modified at the aldehyde function: a new series of orally effective antibiotics” (1988):
Converted amounts (≈) assume the structure as drawn.

What was measured:
Haemophilus influenzae = assay: In vitro antimicrobial activity against Haemophilus influenzae.; type: functional
Staphylococcus aureus = assay: In vitro antimicrobial activity against Staphylococcus aureus X1; type: functional
Streptococcus pyogenes [1] = assay: In vivo effective dose against experimental infections in rodent caused by Streptococcus pyogenes C203 when administered subcutaneously; type: functional; conditions: sc
Streptococcus pneumoniae = assay: In vitro antimicrobial activity against Streptococcus pneumoniae; type: functional
[2] = tested on: Staphylococcus epidermidis; assay: In vitro antimicrobial activity against Staphylococcus epidermidis EPI1; type: functional
Enterococcus faecium = assay: In vitro antimicrobial activity against Streptococcus faecium X66; type: functional, streptococcus fae-cium
Streptococcus pyogenes [3] = assay: In vitro antimicrobial activity against Streptococcus pyogenes C203; type: functional
Streptococcus pyogenes [4] = assay: In vivo effective dose against experimental infections in rodent caused by Streptococcus pyogenes C203 when administered orally; type: functional; conditions: po

With `CC[C@H]1OC(=O)C[C@@H](O)[C@H](C)[C@@H](O[C@@H]2O[C@H](C)[C@@H](O[C@H]3C[C@@](C)(O)[C@@H](O)[C@H](C)O3)[C@H](N(C)C)[C@H]2O)[C@@H](CCO)C[C@@H](C)C(=O)/C=C/C(C)=C/[C@@H]1CO[C@@H]1O[C@H](C)[C@@H](O)[C@@H](O)[C@H]1OC` as the molecule, how does the MIC (Haemophilus influenzae) read?
The MIC was over 128 µg/mL.

What about the MIC (Staphylococcus aureus) of the same molecule?
The MIC was 16 µg/mL (≈ 17.7 µM).

And the ED50 (Streptococcus pyogenes [1])?
The ED50 was over 10 mg/kg.

And the MIC (Streptococcus pneumoniae)?
Its MIC is 32 µg/mL (≈ 35.4 µM).

What about the MIC [2] of the same molecule?
Its MIC is 4 µg/mL (≈ 4.42 µM).

And the MIC (Enterococcus faecium)?
Its MIC is 128 µg/mL (≈ 142 µM).

And the MIC (Streptococcus pyogenes [3])?
Its MIC is 4 µg/mL (≈ 4.42 µM).

What about the ED50 (Streptococcus pyogenes [4]) of the same molecule?
The ED50 was over 100 mg/kg.
